# Measured values reported in ChEMBL document CHEMBL2040759, “Design, synthesis and anticancer activity of nitric oxide donating/chalcone hybrids” (2012).
# Columns and labels:
# Assay type in all cases: functional
# HT-29 = assay: Growth inhibition of human HT-29 cells assessed as cell growth at 10^-5 M after 48 hrs by SRB assay; conditions: HT-29, 48 h, read-out: Activity
# CCRF-CEM = assay: Growth inhibition of human CCRF-CEM cells assessed as cell growth at 10^-5 M after 48 hrs by SRB assay; conditions: read-out: Activity
# UO-31 = assay: Growth inhibition of human UO31 cells assessed as cell growth at 10^-5 M after 48 hrs by SRB assay; conditions: UO-31, 48 h, read-out: Activity
# MOLT-4 = assay: Growth inhibition of human MOLT4 cells after 48 hrs by SRB assay; conditions: MOLT-4, 48 h
# HCC 2998 = assay: Growth inhibition of human HCC2998 cells assessed as cell growth at 10^-5 M after 48 hrs by SRB assay; conditions: HCC 2998, 48 h, read-out: Activity
# M14 = assay: Growth inhibition of human M14 cells after 48 hrs by SRB assay; conditions: M14, 48 h
# NCI-H23 = assay: Growth inhibition of human NCI-H23 cells assessed as cell growth at 10^-5 M after 48 hrs by SRB assay; conditions: NCI-H23, 48 h, read-out: Activity
# IGROV-1 = assay: Growth inhibition of human IGROV1 cells assessed as cell growth at 10^-5 M after 48 hrs by SRB assay; conditions: IGROV-1, 48 h, read-out: Activity
# CAKI-1 = assay: Growth inhibition of human Caki1 cells assessed as cell growth at 10^-5 M after 48 hrs by SRB assay; conditions: CAKI-1, 48 h, read-out: Activity
# SR = assay: Growth inhibition of human SR cells after 48 hrs by SRB assay
# TK-10 = assay: Growth inhibition of human TK10 cells after 48 hrs by SRB assay; conditions: TK-10, 48 h
# UACC-257 = assay: Growth inhibition of human UACC257 cells assessed as cell growth at 10^-5 M after 48 hrs by SRB assay; conditions: UACC-257, 48 h, read-out: Activity
# A549 [1] = assay: Growth inhibition of human A549/ATCC cells after 48 hrs by SRB assay; conditions: A549, 48 h
# SK-OV-3 = assay: Growth inhibition of human SKOV3 cells assessed as cell growth at 10^-5 M after 48 hrs by SRB assay; conditions: SK-OV-3, 48 h, read-out: Activity
# NCI-H322M [2] = assay: Growth inhibition of human NCI-H322M cells after 48 hrs by SRB assay
# HOP-92 = assay: Growth inhibition of human HOP92 cells assessed as cell growth at 10^-5 M after 48 hrs by SRB assay; conditions: HOP-92, 48 h, read-out: Activity
# EKVX = assay: Growth inhibition of human EKVX cells assessed as cell growth at 10^-5 M after 48 hrs by SRB assay; conditions: read-out: Activity
# HOP-62 = assay: Growth inhibition of human HOP62 cells assessed as cell growth at 10^-5 M after 48 hrs by SRB assay; conditions: HOP-62, 48 h, read-out: Activity
# OVCAR-4 = assay: Growth inhibition of human OVCAR4 cells after 48 hrs by SRB assay; conditions: OVCAR-4, 48 h
# RXF 393 = assay: Growth inhibition of human RXF393 cells after 48 hrs by SRB assay; conditions: RXF 393, 48 h
# HCT-15 = assay: Growth inhibition of human HCT15 cells after 48 hrs by SRB assay; conditions: HCT-15, 48 h
# SK-MEL-5 = assay: Growth inhibition of human SK-MEL-5 cells after 48 hrs by SRB assay; conditions: SK-MEL-5, 48 h
# MCF7 = assay: Growth inhibition of human MCF7 cells assessed as cell growth at 10^-5 M after 48 hrs by SRB assay; conditions: MCF7, 48 h, read-out: Activity
# UACC-62 [3] = assay: Growth inhibition of human UACC62 cells after 48 hrs by SRB assay; conditions: UACC-62, 48 h
# A498 = assay: Growth inhibition of human A498 cells after 48 hrs by SRB assay; conditions: A498, 48 h
# OVCAR-3 = assay: Growth inhibition of human OVCAR3 cells after 48 hrs by SRB assay; conditions: OVCAR-3, 48 h
# NCI-H322M [4] = assay: Growth inhibition of human NCI-H322M cells assessed as cell growth at 10^-5 M after 48 hrs by SRB assay; conditions: read-out: Activity
# COLO 205 = assay: Growth inhibition of human COLO205 cells assessed as cell growth at 10^-5 M after 48 hrs by SRB assay; conditions: COLO 205, 48 h, read-out: Activity
# SK-MEL-28 = assay: Growth inhibition of human SK-MEL-28 cells after 48 hrs by SRB assay; conditions: SK-MEL-28, 48 h
# SF-295 = assay: Growth inhibition of human SF295 cells after 48 hrs by SRB assay; conditions: SF-295, 48 h
# PC-3 = assay: Growth inhibition of human PC3 cells assessed as cell growth at 10^-5 M after 48 hrs by SRB assay; conditions: PC-3, 48 h, read-out: Activity
# A549 [5] = assay: Growth inhibition of human A549/ATCC cells assessed as cell growth at 10^-5 M after 48 hrs by SRB assay; conditions: A549, 48 h, read-out: Activity
# UACC-62 [6] = assay: Growth inhibition of human UACC62 cells assessed as cell growth at 10^-5 M after 48 hrs by SRB assay; conditions: UACC-62, 48 h, read-out: Activity
# [7] = Growth inhibition of human NCI-ADR-RES cells assessed as cell growth at 10^-5 M after 48 hrs by SRB assay; conditions: read-out: Activity
# HL-60(TB) = assay: Growth inhibition of human HL-60(TB) cells assessed as cell growth at 10^-5 M after 48 hrs by SRB assay; conditions: HL-60, 48 h, read-out: Activity
# [8] = read-out: LC50 (the source's name)
compound,measurement,setting,value
O=C(CO[N+](=O)[O-])Nc1ccc(C(=O)/C=C/c2ccc(Cl)cc2)cc1,growth at 10 µM,HT-29,-23.4%
same,growth at 10 µM,CCRF-CEM,20.1%
same,growth at 10 µM,UO-31,31.9%
same,GI50,MOLT-4,4.68 µM
same,TGI,MOLT-4,69.4 µM
same,CC50,MOLT-4; [8],> 100 µM
same,growth at 10 µM,HCC 2998,-61.3%
same,GI50,M14,2.05 µM
same,TGI,M14,4.96 µM
same,CC50,M14; [8],17.9 µM
same,growth at 10 µM,NCI-H23,5.49%
same,growth at 10 µM,IGROV-1,-26%
same,growth at 10 µM,CAKI-1,74.9%
same,GI50,SR,3.64 µM
same,TGI,SR,> 100 µM
same,CC50,SR; [8],> 100 µM
same,GI50,TK-10,8.37 µM
same,TGI,TK-10,25.1 µM
same,CC50,TK-10; [8],68.2 µM
same,growth at 10 µM,UACC-257,61.2%
same,GI50,A549 [1],5.71 µM
same,TGI,A549 [1],20.6 µM
same,CC50,A549 [1]; [8],57.9 µM
same,growth at 10 µM,SK-OV-3,89.3%
same,GI50,NCI-H322M [2],10.3 µM
same,TGI,NCI-H322M [2],22.6 µM
same,CC50,NCI-H322M [2]; [8],49.6 µM
same,growth at 10 µM,HOP-92,66.8%
same,growth at 10 µM,EKVX,67.9%
same,growth at 10 µM,HOP-62,94.1%
same,GI50,OVCAR-4,4.06 µM
same,TGI,OVCAR-4,21 µM
same,CC50,OVCAR-4; [8],76.5 µM
same,GI50,RXF 393,4.82 µM
same,TGI,RXF 393,17.8 µM
same,CC50,RXF 393; [8],48.5 µM
same,GI50,HCT-15,2.03 µM
same,TGI,HCT-15,6.53 µM
same,CC50,HCT-15; [8],59.7 µM
same,GI50,SK-MEL-5,4.23 µM
same,TGI,SK-MEL-5,15.4 µM
same,CC50,SK-MEL-5; [8],39.8 µM
same,growth at 10 µM,MCF7,1.64%
same,GI50,UACC-62 [3],2.76 µM
same,TGI,UACC-62 [3],11 µM
same,CC50,UACC-62 [3]; [8],51.3 µM
same,GI50,A498,15.4 µM
same,TGI,A498,54.9 µM
same,CC50,A498; [8],> 100 µM
same,GI50,OVCAR-3,2.22 µM
same,TGI,OVCAR-3,6.55 µM
same,CC50,OVCAR-3; [8],23.9 µM
same,growth at 10 µM,NCI-H322M [4],71.5%
same,growth at 10 µM,COLO 205,36.1%
same,GI50,SK-MEL-28,4.96 µM
same,TGI,SK-MEL-28,18.1 µM
same,CC50,SK-MEL-28; [8],49.5 µM
same,GI50,SF-295,5.82 µM
same,TGI,SF-295,29.2 µM
same,CC50,SF-295; [8],> 100 µM
same,growth at 10 µM,PC-3,27.6%
same,growth at 10 µM,A549 [5],67.6%
same,growth at 10 µM,UACC-62 [6],49.2%
same,growth at 10 µM,[7],29.9%
O=C(CO[N+](=O)[O-])Nc1ccc(C(=O)/C=C/c2ccc3c(c2)OCO3)cc1,growth at 10 µM,HT-29,30.1%
same,growth at 10 µM,CCRF-CEM,70%
same,growth at 10 µM,UO-31,77.1%
same,growth at 10 µM,HCC 2998,69.2%
same,growth at 10 µM,NCI-H23,58.1%
same,growth at 10 µM,IGROV-1,46.3%
same,growth at 10 µM,CAKI-1,93%
same,growth at 10 µM,UACC-257,92.9%
same,growth at 10 µM,SK-OV-3,111%
same,growth at 10 µM,HL-60(TB),73.7%
same,growth at 10 µM,HOP-92,77.3%
same,growth at 10 µM,EKVX,99.7%
same,growth at 10 µM,HOP-62,112%
same,growth at 10 µM,MCF7,26.2%
same,growth at 10 µM,NCI-H322M [4],108%
same,growth at 10 µM,COLO 205,113%
same,growth at 10 µM,PC-3,61.4%
same,growth at 10 µM,A549 [5],88.9%
same,growth at 10 µM,UACC-62 [6],96%
same,growth at 10 µM,[7],84.5%
